Results on 2 molecules are retold here after US20100239563A1 (priority 2001, published 2010).

Series [1] relates to influenza A virus strain WSN-HK.
The subject of series [2] is influenza B viruses/Massachusetts/6/92 (B/Mass).
Series [3] relates to influenza B virus strain Massachusetts/6/93.
The conditions of series [4]: human, in vivo; cited from earlier work.

SMILES strings stand for the structures.

Take `N#CC(=C(N)Sc1ccccc1N)C(C#N)=C(N)Sc1ccccc1N` [U0126, 1,4-diamino-2,3-dicyano-1,4-bis(2-aminophenylthio)butadiene]: the “reduction of the number of newly formed infectious virus particles” value is recorded as “approx. 80%” in series [1] and “approx. 90%” in series [3]. In addition, in series [2], the “titer of infectious virus particles over infection sequences” value was “significant reduction of the influenza virus particles”. Further, the “cytotoxic effect on the cells” value in the series on MDCK cells was “neither solvent nor inhibitor have a significant cytotoxic effect”.

On to `CN1CC[C@H](c2c(O)cc(O)c3c(=O)cc(-c4ccccc4Cl)oc23)[C@H](O)C1` [flavopiridol], for which the MTD in series [4] is 50 mg/m^2/dx3.
